≈ marks a conversion by molar mass, not a printed value.
How the values were obtained:
[1] = system: Mycobacterium tuberculosis; test: Antimycobacterial activity against Mycobacterium tuberculosis mc2 6230 assessed as inhibition of mycobacterial growth incubated for 10 to 14 days by resazurin microtiter assay; type: functional; details: time 10-14 day
[2] = Cytotoxicity against C57BL/6 mouse BMDM cells assessed as reduction in cell viability measured after 24 hrs by resazurin dye based assay; type: toxicity; details: C57BL/6, mouse, BMDM cells (bone marrow-derived macrophages)
Mycobacterium marinum = test: Antimycobacterial activity against Mycobacterium marinum ATCC BAA-535/M assessed as inhibition of mycobacterial growth incubated for 10 to 14 days by resazurin microtiter assay; type: functional; details: time 10-14 day
[3] = system: Mycobacteroides abscessus; test: Antimycobacterial activity against Mycobacterium abscessus CIP104536T with rough morphotype assessed as inhibition of mycobacterial growth incubated for 3 to 5 days by resazurin microtiter assay; type: functional; details: time 3-5 day
[4] = system: Mycobacteroides abscessus; test: Antimycobacterial activity against Mycobacterium abscessus CIP104536T with smooth morphotype assessed as inhibition of mycobacterial growth incubated for 3 to 5 days by resazurin microtiter assay; type: functional; details: time 3-5 day

Row | Structure (SMILES) | MIC50 [1] [µg/mL] | MIC90 [1] [µg/mL] | CC50 at 24 h [2] [µg/mL] | MIC50 (Mycobacterium marinum) [µg/mL] | MIC50 [3] [µg/mL] | MIC90 [3] [µg/mL] | MIC50 [4] [µg/mL] | MIC90 (Mycobacterium marinum) [µg/mL] | MIC90 [4] [µg/mL]
1 | NNC(=O)/C=C/c1cccc(C(F)(F)F)c1 | 40.5 (≈ 176 µM) | 65.7 (≈ 285 µM) | > 125 | > 100 | 51.4 (≈ 223 µM) | 55.7 (≈ 242 µM) | > 100 |  | 
2 | CCCCCC(=O)ONC(=O)/C=C/C=C/c1ccc(F)cc1 | 21.6 (≈ 70.7 µM) | 40.7 (≈ 133 µM) | < 10 | 19.8 (≈ 64.8 µM) | > 100 |  | > 100 | 92.9 (≈ 304 µM) | 
3 | CCCCCCCCCCOc1ccc(/C=C/C=C/C(=O)NO)cc1 | > 100 |  | > 125 | > 100 | > 100 |  | > 100 |  | 
4 | CCCCOc1ccc(/C=C/C=C/C(=O)NO)cc1 | 38.6 (≈ 148 µM) | > 100 | > 125 | > 100 | > 100 |  | 27.2 (≈ 104 µM) |  | 59.3 (≈ 227 µM)
5 | NNC(=O)/C=C/C=C/c1cccc(F)c1 | > 100 |  | > 125 | > 100 | > 100 |  | > 100 |  | 
6 | O=C(/C=C/C=C/c1ccc(F)cc1)NO | > 100 |  | < 10 | 18.1 (≈ 87.4 µM) | > 100 |  | > 100 | > 100 | 
7 | O=C(/C=C/c1ccc(C(F)(F)F)cc1)NO | 14.4 (≈ 62.3 µM) | > 100 | < 10 | 14.1 (≈ 61 µM) | 6.3 (≈ 27.3 µM) | 21.9 (≈ 94.7 µM) | 37.2 (≈ 161 µM) | > 100 | 39.6 (≈ 171 µM)
8 | NNC(=O)/C=C/c1ccc(C(F)(F)F)cc1 | 20.4 (≈ 88.6 µM) | 44.2 (≈ 192 µM) | > 125 | > 100 | 46 (≈ 200 µM) | 46.8 (≈ 203 µM) | > 100 |  | 
9 | O=C(/C=C/C=C/c1ccncc1)NO | 19.4 (≈ 102 µM) | 27.6 (≈ 145 µM) | < 10 | 26.9 (≈ 141 µM) | > 100 |  | > 100 | > 100 | 
10 | NNC(=O)/C=C/c1ccc(F)cc1 | > 100 |  | < 10 | 60.5 (≈ 336 µM) | > 100 |  | > 100 | 80.4 (≈ 446 µM) | 
11 | O=C(/C=C/c1ccccc1)NO | 28.8 (≈ 176 µM) | 40.7 (≈ 249 µM) | < 10 | 6.7 (≈ 41.1 µM) | > 100 |  | > 100 | 32.4 (≈ 199 µM) | 
12 | NNC(=O)/C=C/C=C/c1ccc(C(F)(F)F)cc1 | 23.7 (≈ 92.5 µM) | > 100 | > 125 | > 100 | 5.7 (≈ 22.2 µM) | 19.4 (≈ 75.7 µM) | > 100 |  | 
13 | COc1ccc(/C=C/C(=O)NO)cc1 | 23.1 (≈ 120 µM) | 24.3 (≈ 126 µM) | < 10 | 58.2 (≈ 301 µM) | > 100 |  | > 100 | 89.5 (≈ 463 µM) | 
14 | NNC(=O)/C=C/c1cccc(F)c1 | 65.8 (≈ 365 µM) | > 100 | > 125 | 41.1 (≈ 228 µM) | > 100 |  | > 100 | > 100 | 
15 | CCCCCCCOc1ccc(/C=C/C=C/C(=O)NN)cc1 | 27 (≈ 89.3 µM) | 29.1 (≈ 96.2 µM) | 64 (≈ 212 µM) | > 100 | 9.7 (≈ 32.1 µM) | 26.1 (≈ 86.3 µM) | 26.6 (≈ 88 µM) |  | > 100
16 | CCCCCCCCc1ccc(/C=C/C=C/C(=O)NO)cc1 | > 100 |  | < 10 | 49.4 (≈ 164 µM) | > 100 |  | > 100 | > 100 | 
17 | CCCCCCONC(=O)/C=C/C=C/c1ccc(F)cc1 | > 100 |  | > 125 | 37.1 (≈ 127 µM) | > 100 |  | > 100 | > 100 | 
18 | COc1ccc(/C=C/C=C/C(=O)NO)cc1 | 48 (≈ 219 µM) | > 100 | < 10 | 14.8 (≈ 67.5 µM) | > 100 |  | > 100 | 62.1 (≈ 283 µM) | 
19 | CCCCOc1ccc(/C=C/C=C/C(=O)NN)cc1 | > 100 |  | 65 (≈ 250 µM) | > 100 | > 100 |  | > 100 |  | 
20 | NNC(=O)/C=C/c1ccc2c(c1)OCO2 | > 100 |  | 123 (≈ 597 µM) | > 100 | > 100 |  | > 100 |  | 

Source: ChEMBL document CHEMBL5143637, “Design, synthesis and antibacterial activity against pathogenic mycobacteria of conjugated hydroxamic acids, hydrazides and O-alkyl/O-acyl protected hydroxamic derivatives” (Bioorg Med Chem Lett, 2022)
